Source: US5066783A, “Antiviral peptides and means for treating herpes infections” (priority 1988, dated 1991)
Where a SMILES comes first, the peptide text is derived from it. Bridges are numbered along the chain shown (N, C = ends). [ ]: non-standard residue; d: D form. The star is where a group is joined. Ileψ(thiazoline)Cys = CC[C@H](C)[C@H](N)C1=N[C@H](C(=O)*)CS1; dOrn = NCCC[C@@H](N)C(=O)O

Tests used:
HSV-2 = HSV-2 replication (virus yield) in serum-starved BHK 21/C13 cells; type: cell-based; conditions: 1 mM
HSV-1 = conditions: A. Alarcon et al., Antiviral Research, 4, 231 (1984); cited from earlier work
[1] = target: HSV-2 ribonucleotide reductase (Human herpesvirus 2, UniProt P89462); assay: HSV-2 ribonucleotide reductase inhibition; type: biochemical; conditions: data not shown
Chain of HSV-2 ribonucleotide reductase (P89462 whole entry): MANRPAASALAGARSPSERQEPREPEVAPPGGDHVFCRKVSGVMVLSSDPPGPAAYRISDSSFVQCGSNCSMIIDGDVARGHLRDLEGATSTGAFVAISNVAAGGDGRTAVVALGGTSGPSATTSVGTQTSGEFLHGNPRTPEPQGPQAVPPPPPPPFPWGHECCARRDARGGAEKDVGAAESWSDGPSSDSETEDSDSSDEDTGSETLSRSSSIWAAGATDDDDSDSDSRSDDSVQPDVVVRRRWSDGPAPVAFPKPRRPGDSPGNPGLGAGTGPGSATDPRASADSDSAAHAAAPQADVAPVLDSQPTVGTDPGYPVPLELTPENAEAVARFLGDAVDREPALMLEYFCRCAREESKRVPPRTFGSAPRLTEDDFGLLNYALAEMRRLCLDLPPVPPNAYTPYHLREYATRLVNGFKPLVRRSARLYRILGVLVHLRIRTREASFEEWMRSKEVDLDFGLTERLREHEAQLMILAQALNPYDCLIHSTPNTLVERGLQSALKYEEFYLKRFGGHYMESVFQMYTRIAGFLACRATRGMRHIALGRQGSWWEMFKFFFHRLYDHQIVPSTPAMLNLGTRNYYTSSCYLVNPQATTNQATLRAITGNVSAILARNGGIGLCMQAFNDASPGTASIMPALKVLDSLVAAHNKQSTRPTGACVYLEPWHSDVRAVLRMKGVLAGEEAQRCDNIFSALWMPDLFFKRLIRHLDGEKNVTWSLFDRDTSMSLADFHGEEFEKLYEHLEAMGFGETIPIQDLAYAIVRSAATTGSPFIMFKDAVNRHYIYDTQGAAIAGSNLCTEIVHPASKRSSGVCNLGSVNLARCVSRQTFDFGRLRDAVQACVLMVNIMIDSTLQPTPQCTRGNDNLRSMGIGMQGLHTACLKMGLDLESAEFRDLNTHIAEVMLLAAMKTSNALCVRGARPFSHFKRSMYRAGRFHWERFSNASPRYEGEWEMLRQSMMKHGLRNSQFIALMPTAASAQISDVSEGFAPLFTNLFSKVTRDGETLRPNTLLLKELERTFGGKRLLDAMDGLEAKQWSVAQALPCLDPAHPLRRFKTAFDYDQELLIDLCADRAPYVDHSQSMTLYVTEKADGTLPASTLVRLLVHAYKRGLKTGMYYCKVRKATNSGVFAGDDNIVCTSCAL
Text: The precipitate was removed by centrifugation.

HSV-1 strain MP-12 = assay: Guinea pig cutaneous herpes infection model, HSV-1; type: in vivo; conditions: summary of TABLE III
HSV-2 strain HG-52 = assay: Guinea pig cutaneous herpes infection model, HSV-2; type: in vivo; conditions: summary of TABLE IV
[2] = tested on: cellular ribonucleotide reductase from 96-V-2(600) cells; conditions: up to 1 mM; FIG. 1
[3] = tested on: cellular ribonucleotide reductase from BHK21/C13 cells; conditions: up to 1 mM; data not shown
[4] = target: ribonucleotide reductase from HSV-1 (strain F)-infected BHK-21/C13 cells (Human herpesvirus 1, UniProt P08543); assay: HSV-1 ribonucleotide reductase (CDP reductase) inhibition; conditions: for % CDP REDUCTASE ACTIVITY: 75 μg protein extract
Chain of ribonucleotide reductase from HSV-1 (strain F)-infected BHK-21/C13 cells (P08543 whole entry): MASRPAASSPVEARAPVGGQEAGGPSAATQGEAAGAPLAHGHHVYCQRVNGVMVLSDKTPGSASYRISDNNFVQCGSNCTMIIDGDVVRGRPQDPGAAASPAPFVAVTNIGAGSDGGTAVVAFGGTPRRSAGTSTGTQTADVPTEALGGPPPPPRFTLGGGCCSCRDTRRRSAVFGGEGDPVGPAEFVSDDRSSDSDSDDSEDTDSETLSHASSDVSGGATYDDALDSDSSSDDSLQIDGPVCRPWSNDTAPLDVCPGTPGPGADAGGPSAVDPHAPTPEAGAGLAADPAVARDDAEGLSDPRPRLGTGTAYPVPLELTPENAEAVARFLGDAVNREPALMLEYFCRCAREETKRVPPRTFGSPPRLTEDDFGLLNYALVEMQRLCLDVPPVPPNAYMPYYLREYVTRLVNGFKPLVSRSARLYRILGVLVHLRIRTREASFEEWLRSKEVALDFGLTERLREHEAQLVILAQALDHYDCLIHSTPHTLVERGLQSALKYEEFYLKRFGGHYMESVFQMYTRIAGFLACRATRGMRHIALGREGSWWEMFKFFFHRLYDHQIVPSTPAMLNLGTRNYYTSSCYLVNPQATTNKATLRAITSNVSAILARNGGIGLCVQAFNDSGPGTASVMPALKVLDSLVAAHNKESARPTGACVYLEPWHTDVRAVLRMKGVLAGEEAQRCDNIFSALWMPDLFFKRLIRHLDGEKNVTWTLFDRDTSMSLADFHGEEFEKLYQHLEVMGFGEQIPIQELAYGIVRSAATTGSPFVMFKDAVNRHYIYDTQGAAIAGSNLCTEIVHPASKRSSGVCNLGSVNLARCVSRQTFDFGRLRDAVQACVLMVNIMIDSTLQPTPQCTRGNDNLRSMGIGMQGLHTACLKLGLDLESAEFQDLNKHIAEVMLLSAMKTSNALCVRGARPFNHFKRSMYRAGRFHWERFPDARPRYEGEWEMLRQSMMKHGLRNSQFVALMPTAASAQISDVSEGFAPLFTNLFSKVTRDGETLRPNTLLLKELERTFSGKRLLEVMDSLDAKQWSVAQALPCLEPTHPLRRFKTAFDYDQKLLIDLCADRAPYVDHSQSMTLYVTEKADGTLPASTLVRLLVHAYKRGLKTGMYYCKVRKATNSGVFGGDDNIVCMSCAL

[5] = tested on: HSV-1 ribonucleotide reductase; assay: Neutralization of HSV-1 ribonucleotide reductase by anti-nonapeptide IgG, preadsorbed with nonapeptide; conditions: FIG. 2
[6] = 4 hours post infection, A (after absorption)
[7] = 4 hours post infection, B (before absorption)
[8] = 12 hours post infection, A (after absorption)
[9] = 12 hours post infection, B (before absorption)
[10] = 24 hours post infection, A (after absorption)
[11] = 24 hours post infection, B (before absorption)
[12] = 36 hours post infection, A (after absorption)
[13] = 36 hours post infection, B (before absorption)

Row | SMILES | virus titer (HSV-2; [6]) | virus titer (HSV-2; [7]) | virus titer (HSV-2; [8]) | virus titer (HSV-2; [9]) | virus titer (HSV-2; [10]) | virus titer (HSV-2; [11]) | virus titer (HSV-2; [12]) | virus titer (HSV-2; [13]) | further results
1 | CC[C@H](C)[C@H](N)C1=N[C@H](C(=O)N[C@@H](CC(C)C)C(=O)N[C@H](CCC(=O)O)C(=O)N[C@H](C(=O)N[C@H]2CCCCNC(=O)[C@H](CC(N)=O)NC(=O)[C@@H](CC(=O)O)NC(=O)[C@H](Cc3cnc[nH]3)NC(=O)[C@@H](Cc3ccccc3)NC(=O)[C@H]([C@@H](C)CC)NC(=O)[C@@H](CCCN)NC2=O)[C@@H](C)CC)CS1 [Bacitracin, bacitracin, reference compound] ({Ileψ(thiazoline)Cys}-L[dE]IK[dOrn]I[dF]H[dD]N; lactam 4-C) | 0.0005 PFU/cell | 0.0007 PFU/cell | 0.007 PFU/cell | 0.005 PFU/cell | 0.06 PFU/cell | 0.06 PFU/cell | 0.06 PFU/cell | 0.03 PFU/cell | activity against HSV-1 when used alone (HSV-1): inactive
2 | CC(C)C[C@H](NC(=O)[C@H](CC(=O)O)NC(=O)[C@H](CC(N)=O)NC(=O)[C@@H](NC(=O)[C@@H](NC(=O)[C@H](C)NC(=O)CNC(=O)[C@H](C)NC(=O)[C@@H](N)Cc1ccc(O)cc1)C(C)C)C(C)C)C(=O)O [HSV 7-15, L-tyrosyl-L-alanyl-glycyl-L-alanyl-L-valyl-L-valyl-L-asparagyl-L-aspartyl- L-leucine] | 0.001 PFU/cell | 0.0006 PFU/cell | 0.01 PFU/cell | 0.006 PFU/cell | 0.5 PFU/cell | 0.4 PFU/cell | 1.1 PFU/cell | 0.8 PFU/cell | inhibition curve for the HSV-2 enzyme compared with HSV-1 [1]: nearly identical; shortening the healing time and diminishing the symptoms of HSV-1 infection (HSV-1 strain MP-12): effective; shortening healing time and alleviating the symptoms of HSV-2 (HSV-2 strain HG-52): effective; sensitivity of cellular enzyme to the peptide [2]: completely insensitive; sensitivity of cellular enzyme to the peptide [3]: completely insensitive; % CDP REDUCTASE ACTIVITY ([4]; 10 μM peptide): 96%; % CDP REDUCTASE ACTIVITY ([4]; 25 μM peptide): 94%; % CDP REDUCTASE ACTIVITY ([4]; 50 μM peptide): 80%; % CDP REDUCTASE ACTIVITY ([4]; 100 μM peptide): 45%; % CDP REDUCTASE ACTIVITY ([4]; 400 μM peptide): 9%; concentration giving total inhibition ([4]; FIG. 1, 50 μg viral enzyme): 400 µM; nonapeptide concentration at which equivalence was reached (IgG neutralizing capacity eliminated) [5]: 10 µM
